# According to patent US6348211B1, “Compositions and methods for treatment of attention deficit disorder and attention deficit/hyperactivity disorder with methylphenidate” (Noven Pharmaceuticals, Inc., priority 1997, dated 2002):
# Experiments:
# [1] = Degradation of methylphenidate in topical composition in the presence of acid functional groups; format: physicochemical; settings: with every 1% increase by weight in acid functional component of the topical composition
# Excerpt: It has been discovered that methylphenidate, and in particular the base form, can be unstable and undergoes degradation in the presence of acid functional groups which are contained in adhesives, enhancers, excipients and other components of the topical composition. The major degradant/metabolite appears to be ritalinic acid, which increases about ten fold with every 1% increase by weight in such acid functional component. Such degradation can greatly reduce the amount of the active enantiomer during storage of the topical composition, thus reducing the amount of active methylphenidate available for drug delivery.
# [2] = among the four enantiomers of methylphenidate; cited from earlier work
Compound,increase of major degradant ritalinic acid [1],activity of enantiomer [2]
COC(=O)C(c1ccccc1)C1CCCCN1 (centres unmarked) [Methylphenidate],about ten fold,
COC(=O)[C@H](c1ccccc1)[C@H]1CCCCN1 [d-threo-methylphenidate],,significantly active
